# From ChEMBL document CHEMBL1201862, “PubChem BioAssay data set” (2004)
# Where “and” joins values, the source holds several entries; their conditions need not be identical. Equal entries are not always repeated.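 Cultured in 96-well plates, cells were exposed to test compound for 48 hours across five concentrations. At the GI50, growth is halved.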 Calls of active or inactive are those of the source. Rule as the data show it: active = GI50 up to about 1.1 µM and inactive = higher.
# Experiments:
# Experiment in all cases: NCI-60 cell line screen, 48 h
# A498 = tested on: A498
# CAKI-1 = tested on: CAKI-1
# COLO 205 = tested on: COLO 205
# EKVX = tested on: EKVX
# HCC 2998 = tested on: HCC 2998
# HCT-15 = tested on: HCT-15
# HL-60 = tested on: HL-60
# HT-29 = tested on: HT-29
# IGROV-1 = tested on: IGROV-1
# KM12 = tested on: KM12
# MCF7 = tested on: MCF7
# MDA-MB-231 = tested on: MDA-MB-231
# MDA-MB-435 = tested on: MDA-MB-435
# MDA-N = tested on: MDA-N
# MOLT-4 = tested on: MOLT-4
# Malme-3M = tested on: Malme-3M
# NCI-H226 = tested on: NCI-H226
# NCI-H460 = tested on: NCI-H460
# NCI-H522 = tested on: NCI-H522
# NCI/ADR-RES = tested on: NCI/ADR-RES
# OVCAR-3 = tested on: OVCAR-3
# OVCAR-5 = tested on: OVCAR-5
# PC-3 = tested on: PC-3
# SF-295 = tested on: SF-295
# SK-MEL-28 = tested on: SK-MEL-28
# SK-MEL-5 = tested on: SK-MEL-5
# SNB-75 = tested on: SNB-75
# T47D = tested on: T47D
# U-251 = tested on: U-251
# UACC-257 = tested on: UACC-257
# 786-0 = tested on: 786-0
# K562 = tested on: K562
# M14 = tested on: M14
# RPMI-8226 = tested on: RPMI-8226
# RXF 393 = tested on: RXF 393
# SNB-19 = tested on: SNB-19
# TK-10 = tested on: TK-10
# UACC-62 = tested on: UACC-62
# UO-31 = tested on: UO-31
# A549 = tested on: A549
# CCRF-CEM = tested on: CCRF-CEM
# DU-145 = tested on: DU-145
# HOP-62 = tested on: HOP-62
# LOX IMVI = tested on: LOX IMVI
# NCI-H23 = tested on: NCI-H23
# OVCAR-8 = tested on: OVCAR-8
# SF-268 = tested on: SF-268
# SK-OV-3 = tested on: SK-OV-3
# SN12C = tested on: SN12C
# SR = tested on: SR
# SW-620 = tested on: SW-620
# Hs-578T = tested on: Hs-578T
# OVCAR-4 = tested on: OVCAR-4
smiles,measurement,setting,value
CC(=O)OCC1OC(n2c(-c3ccccc3)c(C)c(C)c(C#N)c2=S)C(OC(C)=O)C(OC(C)=O)C1OC(C)=O (configuration not stated),GI50,A498,> 50 µM (inactive) and 43.8 µM (inactive)
same,GI50,CAKI-1,> 50 µM (inactive)
same,GI50,COLO 205,> 100 µM (inactive)
same,GI50,EKVX,13.5 µM (inactive) and 14.8 µM (inactive)
same,GI50,HCC 2998,> 50 µM (inactive) and 86.3 µM (inactive)
same,GI50,HCT-15,64.4 µM
same,GI50,HL-60,> 100 µM (inactive)
same,GI50,HT-29,> 50 µM (inactive)
same,GI50,IGROV-1,> 100 µM (inactive)
same,GI50,KM12,> 50 µM (inactive)
same,GI50,MCF7,> 50 µM (inactive)
same,GI50,MDA-MB-231,12.9 µM (inactive) and 12.8 µM (inactive)
same,GI50,MDA-MB-435,57.5 µM (inactive)
same,GI50,MDA-N,28.8 µM (inactive) and 18.1 µM (inactive)
same,GI50,MOLT-4,> 50 µM (inactive)
same,GI50,Malme-3M,> 50 µM (inactive) and 38.1 µM (inactive)
same,GI50,NCI-H226,> 50 µM (inactive)
same,GI50,NCI-H460,> 50 µM (inactive) and 43.4 µM (inactive)
same,GI50,NCI-H522,> 50 µM (inactive) and 65.8 µM (inactive)
same,GI50,NCI/ADR-RES,34.2 µM (inactive) and 47.4 µM (inactive)
same,GI50,OVCAR-3,37.4 µM (inactive) and 27.2 µM (inactive)
same,GI50,OVCAR-5,37.3 µM (inactive)
same,GI50,PC-3,26.4 µM (inactive)
same,GI50,SF-295,21 µM (inactive) and 23.1 µM (inactive)
same,GI50,SK-MEL-28,72.4 µM (inactive)
same,GI50,SK-MEL-5,> 100 µM (inactive)
same,GI50,SNB-75,> 100 µM (inactive)
same,GI50,T47D,> 50 µM (inactive) and 34 µM (inactive)
same,GI50,U-251,20.3 µM (inactive)
same,GI50,UACC-257,54.5 µM (inactive)
Cc1ccc(-c2cc(-c3ccco3)c(C#N)c(=S)n2C2OC(CO)C(O)C(O)C2O)cc1 (configuration not stated),GI50,786-0,36.6 µM (inactive) and 56.8 µM (inactive)
same,GI50,A498,41 µM (inactive) and 28.2 µM (inactive)
same,GI50,COLO 205,27.2 µM (inactive) and 35.1 µM (inactive)
same,GI50,EKVX,> 100 µM (inactive) and 95.9 µM (inactive)
same,GI50,HCC 2998,> 100 µM (inactive)
same,GI50,HCT-15,94.6 µM and 49.2 µM
same,GI50,HT-29,34.9 µM (inactive) and 34 µM (inactive)
same,GI50,K562,39 µM (inactive)
same,GI50,KM12,17.2 µM (inactive) and 30.1 µM (inactive)
same,GI50,M14,17.7 µM (inactive) and 30.3 µM (inactive)
same,GI50,MCF7,27.9 µM (inactive) and 49 µM (inactive)
same,GI50,MDA-MB-435,43.2 µM (inactive) and 38.9 µM (inactive)
same,GI50,MDA-N,30.4 µM (inactive) and 34.4 µM (inactive)
same,GI50,NCI-H460,28 µM (inactive) and 36.6 µM (inactive)
same,GI50,OVCAR-3,21.4 µM (inactive) and 35.6 µM (inactive)
same,GI50,OVCAR-5,45.7 µM (inactive) and 39.5 µM (inactive)
same,GI50,RPMI-8226,4.46 µM (inactive) and 6.04 µM (inactive)
same,GI50,RXF 393,18.6 µM (inactive) and 18.9 µM (inactive)
same,GI50,SK-MEL-28,52.2 µM (inactive) and 41 µM (inactive)
same,GI50,SNB-19,36.1 µM (inactive) and 68.9 µM (inactive)
same,GI50,SNB-75,66.4 µM (inactive) and 60.5 µM (inactive)
same,GI50,TK-10,67.8 µM (inactive) and 54.5 µM (inactive)
same,GI50,UACC-257,53.8 µM (inactive) and 45.3 µM (inactive)
same,GI50,UACC-62,2.23 µM (inactive) and 2.48 µM (inactive)
same,GI50,UO-31,18.5 µM (inactive) and 31.7 µM (inactive)
CCOC(=O)c1sc2nc(-c3ccccc3)nn2c1CBr,GI50,786-0,1.6 µM (inactive)
same,GI50,A549,5.11 µM (inactive)
same,GI50,CAKI-1,1.5 µM (inactive)
same,GI50,CCRF-CEM,0.244 µM (active)
same,GI50,COLO 205,1.9 µM (inactive)
same,GI50,DU-145,> 10 µM (inactive)
same,GI50,EKVX,> 10 µM (inactive)
same,GI50,HCC 2998,5.33 µM (inactive)
same,GI50,HL-60,0.348 µM (active)
same,GI50,HOP-62,> 10 µM (inactive)
same,GI50,HT-29,1.89 µM (inactive)
same,GI50,IGROV-1,3.17 µM (inactive)
same,GI50,K562,0.589 µM (active)
same,GI50,KM12,2.11 µM (inactive)
same,GI50,LOX IMVI,1.56 µM (inactive)
same,GI50,M14,1.51 µM (inactive)
same,GI50,MCF7,1.91 µM (inactive)
same,GI50,MDA-MB-231,1.9 µM (inactive)
same,GI50,MOLT-4,0.296 µM (active)
same,GI50,Malme-3M,2.07 µM (inactive)
same,GI50,NCI-H23,1.94 µM (inactive)
same,GI50,OVCAR-8,2.07 µM (inactive)
same,GI50,PC-3,2.06 µM (inactive)
same,GI50,RPMI-8226,1.74 µM (inactive)
same,GI50,RXF 393,2.59 µM (inactive)
same,GI50,SF-268,2.04 µM (inactive)
same,GI50,SF-295,9.29 µM (inactive)
same,GI50,SK-MEL-28,1.95 µM (inactive)
same,GI50,SK-MEL-5,1.77 µM (inactive)
same,GI50,SK-OV-3,3.12 µM (inactive)
same,GI50,SN12C,1.74 µM (inactive)
same,GI50,SNB-75,2.24 µM (inactive)
same,GI50,SR,0.311 µM (active)
same,GI50,SW-620,1.73 µM (inactive)
same,GI50,T47D,2.42 µM (inactive)
same,GI50,TK-10,2.34 µM (inactive)
same,GI50,UACC-257,2.16 µM (inactive)
Cc1nc2ccc(Br)cc2c(=O)n1-c1ccc(NC2OCC(O)C(O)C2O)cc1 (configuration not stated),GI50,A498,> 100 µM (inactive)
same,GI50,A549,> 100 µM (inactive)
same,GI50,DU-145,> 100 µM (inactive)
same,GI50,EKVX,> 100 µM (inactive)
same,GI50,HOP-62,> 100 µM (inactive)
same,GI50,Hs-578T,58.9 µM (inactive)
same,GI50,IGROV-1,62.4 µM (inactive)
same,GI50,NCI-H226,> 100 µM (inactive)
same,GI50,OVCAR-4,> 100 µM (inactive) and 87.5 µM (inactive)
same,GI50,OVCAR-5,> 100 µM (inactive)
same,GI50,SF-268,> 100 µM (inactive) and 55.6 µM (inactive)
same,GI50,SF-295,> 100 µM (inactive)
same,GI50,SK-MEL-5,58.3 µM (inactive)
same,GI50,SNB-19,> 100 µM (inactive)
same,GI50,TK-10,> 100 µM (inactive) and 59.3 µM (inactive)
